The source of these data is article PMC12064818, “A general assay platform to study protein pharmacology using ligand-dependent structural dynamics” (Nature Communications, 2025).

In the assay the target is T1, FLuc-C-HiBiT (Photinus pyralis, UniProt P08659).
T1 construct: firefly luciferase with C-terminal HiBiT tag, E. coli expressed
The experiment in a line: biochemical. The conditions noted are these: enzyme activity, 10 uM ATP; read-out: IC50 or SDR50 (mM) / FLuc E.

T1 sequence (P08659 whole entry, looked up): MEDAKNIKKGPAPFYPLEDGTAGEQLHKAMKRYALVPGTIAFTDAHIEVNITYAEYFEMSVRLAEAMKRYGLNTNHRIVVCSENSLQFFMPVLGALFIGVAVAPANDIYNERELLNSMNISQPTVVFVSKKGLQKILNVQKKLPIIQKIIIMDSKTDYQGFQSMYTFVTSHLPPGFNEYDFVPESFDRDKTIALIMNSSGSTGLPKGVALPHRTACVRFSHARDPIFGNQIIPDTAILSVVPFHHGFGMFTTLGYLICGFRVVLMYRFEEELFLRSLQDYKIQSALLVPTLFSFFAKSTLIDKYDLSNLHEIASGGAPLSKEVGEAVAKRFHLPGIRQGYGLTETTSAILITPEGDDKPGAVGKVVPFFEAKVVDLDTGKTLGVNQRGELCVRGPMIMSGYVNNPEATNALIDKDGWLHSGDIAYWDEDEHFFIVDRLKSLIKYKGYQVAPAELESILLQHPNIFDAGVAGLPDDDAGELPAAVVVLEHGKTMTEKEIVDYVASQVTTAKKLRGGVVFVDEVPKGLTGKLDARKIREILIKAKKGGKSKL

`CC(=O)N1CCNc2cc(-c3cccc(N4CCOCC4)c3)ncc2C1` [NCGC00411247-01]: the IC50 is 18 µM.

As for `CCOC(=O)N1CCc2c(sc(NCc3ccc(OCC)cc3)c2C(=O)Nc2ccc(OC)cc2OC)C1` [NCGC00140805-01], the IC50 stood at 3.94 µM.

As for `Cc1cccc(-c2cccc(NC(=O)C3CCCN(C(=O)CC(F)(F)F)C3)c2)c1` (centres unmarked) [NCGC00425452-01], the IC50 was more than 30 µM.

With `COc1ccc(CN2CCNc3cc(-c4ccccc4)ncc3C2)cn1` [NCGC00411207-01], the IC50 came out at 20.2 µM.

In the case of `Cc1c(C(=O)Nc2cccc(-c3nc4ccccc4s3)c2)oc2ccccc12` [NCGC00119181-01], the IC50 was more than 30 µM.

Take `CCCc1nn2cc(-c3ccc(C)c(C)c3)nc2s1` [NCGC00117454-01]: the IC50 worked out at 0.624 µM.

As for `COc1cccc(C(=O)Nc2ccc(O)c(-c3nc4ccccc4s3)c2)c1` [NCGC00594707-01], the IC50 is more than 30 µM.

`c1ccc(-c2ccnc(NCCc3c[nH]c4ccccc34)n2)nc1` [NCGC00446312-01]: the IC50 was determined as 19.7 µM.

For the compound `CSc1cccc(NC(=O)c2ccc3c(c2)N(C)C2CCCN2C3=O)c1` (centres unmarked) [NCGC00452155-01], the IC50 is 11.1 µM.

Consider `O=C(NCc1ccc(F)cc1)N1CC(Oc2ccc(-c3nc(-c4ccccc4)no3)cc2)C1` [NCGC00441109-01], for which the IC50 was more than 30 µM.

Consider `Cc1c(C(=O)Nc2ccc(C(=O)O)cc2)nnn1-c1ccccc1` [NCGC00141304-01], for which the IC50 stood at 0.0785 µM.

Turning to `COc1cc(OC)c(NC(=O)Cn2c(SCc3ccccc3F)nc3cccnc32)cc1Cl` [NCGC00124034-02], the IC50 is more than 30 µM.

In the case of `CCCCCSc1nnc(-c2ccc(Br)cc2)o1` [NCGC00098355-01], the IC50 was more than 30 µM.

Regarding `Cc1ccc(-c2nc(C(=O)N(C)Cc3ccccc3)no2)cc1` [NCGC00447109-01], the IC50 was found to be 12.4 µM.

As to `Cc1ccc(-c2cc(N)n(-c3ccc(C)cc3)n2)cc1` [NCGC00141302-01], the IC50 amounted to 9.89 µM.

Consider `O=C(O)c1cccc(-c2noc(-c3cccc([N+](=O)[O-])c3)n2)c1` [NCGC00253775-01], for which the IC50 is 0.007 µM.

For `c1ccc2sc(-c3cc4c(c(OC5CCOC5)c3)OCCN(Cc3cccn3-c3nccs3)C4)nc2c1` (centres unmarked) [NCGC00240062-01], the IC50 is more than 30 µM.

Regarding `COc1ccc(C(=O)NCCn2cccc2-c2nc(-c3ccccc3)no2)cc1` [NCGC00445570-01], the IC50 was found to be 2.79 µM.

Consider `CCOc1ccc2nc(N(Cc3cccnc3)C(=O)c3cccs3)sc2c1` [NCGC00136637-01], for which the IC50 was more than 30 µM.

As to `O=C(Nc1ccc2c(c1)OCCO2)c1cccn(Cc2ccccc2)c1=O` [NCGC00137349-01], the IC50 was determined as 11.1 µM.

As to `CCOc1ccc(C(=O)Nc2cc(-c3nc4ccccc4s3)ccc2OC)cc1` [NCGC00103040-01], the IC50 was more than 30 µM.

As to `COc1ccc(OCC(=O)Nc2nc(-c3ccc(Br)cc3)ns2)cc1` [NCGC00118248-01], the IC50 was more than 30 µM.

As to `O=C(Nc1ncc(-c2ccccc2)c2c1OCC2)c1ccccc1` [NCGC00412770-01], the IC50 was determined as 18 µM.

In the case of `O=C(NC1CCN(c2cc(-c3ccc(F)cc3)n[nH]2)C1)c1cc2ccccc2[nH]1` (centres unmarked) [NCGC00437958-01], the IC50 was 6.24 µM.

For `Cc1ccc(C(=O)NCCn2cccc2-c2nc(-c3ccc4c(c3)OCO4)no2)cn1` [NCGC00445612-01], the IC50 came out at 11.1 µM.

Turning to `COc1ccc(-c2noc([C@@H]3C[C@@H](O)CN3Cc3cc4ccccc4o3)n2)cc1` [NCGC00400688-01], the IC50 stood at 16.1 µM.

In the case of `CC(=O)NCCC1CCN(C(=O)Nc2ccc(C)cc2)CC1` [NCGC00424871-01], the IC50 turned out to be 12.4 µM.

As to `O=C1c2cnc(-c3ccccc3)nc2OCCN1Cc1ccccc1` [NCGC00413632-01], the IC50 was more than 30 µM.

Turning to `c1cncc(Nc2cc3c(cn2)CN(Cc2c[nH]cn2)CCN3)c1` [NCGC00411246-03], the IC50 is more than 30 µM.

In the case of `O=[S+]([O-])(c1cccc(C(F)(F)F)c1)n1c(/C=C/c2ccccc2)nc2ccccc21` [NCGC00139418-01], the IC50 came to 0.556 µM.

On to `CCC(=O)NCCC1CCN(C(=O)Nc2ccc(C)cc2)CC1` [NCGC00424867-01], for which the IC50 was 12.4 µM.

For the compound `O=C(COc1ccc(Cl)cc1)Nc1ccc(O)c(-c2nc3ccccc3s2)c1` [NCGC00135616-01], the IC50 was more than 30 µM.

As for `COc1ccc(C2=NOC3(CCN([S+](=O)([O-])c4cccs4)C3)C2)cc1` (centres unmarked) [NCGC00476604-01], the IC50 was more than 30 µM.

On to `Clc1ccc(-n2ncc3c(NC4CCCC4)ncnc32)cc1` [NCGC00139250-01], for which the IC50 was 1.24 µM.

Regarding `O=C1CC2(CCN(CC3CC3)CC2)Oc2ccccc21` [NCGC00476832-01], the IC50 was 18 µM.

Regarding `Cc1ccn2c(Nc3ccc(C(C)C)cc3)c(-c3cccs3)nc2c1` [NCGC00106676-01], the IC50 is 11.1 µM.

Take `C=CCCC(=O)N1CCOc2c(O)cc(-c3nc4ccccc4s3)cc2C1` [NCGC00429409-01]: the IC50 was more than 30 µM.

Consider `Cc1cccc(C(=O)Nc2nc3c(s2)CCCC3)c1` [NCGC00118410-01], for which the IC50 is 2.48 µM.

As for `OCCN1CCN(c2nc(N3CCCCC3)c3cnn(-c4ccc(Cl)cc4)c3n2)CC1` [NCGC00652352-01], the IC50 is more than 30 µM.

In the case of `Cc1cn2nc(C(=O)Nc3ccc(C(=O)NCCc4cccs4)cc3)cc2c(=O)[nH]1` [NCGC00453964-01], the IC50 came out at 8.81 µM.

Consider `CC(=O)Nc1cccc(-c2cccc(CCOc3cnc4c(ccn4CC(=O)O)c3)c2)c1` [NCGC00418203-01], for which the IC50 was 16.1 µM.

For the compound `c1ccc(-c2cn3c(n2)CO[C@@H](CNCc2cccs2)C3)cc1` [NCGC00393328-01], the IC50 was 20.2 µM.

Regarding `Cc1c(-c2ccccc2F)[nH]c2ccc(CNC(=O)CCc3cc(O)no3)cc12` [NCGC00437347-01], the IC50 is 9.89 µM.

In the case of `CSc1cccc(NC(=O)Nc2cccc(-c3ccc(N4CCOCC4)nn3)c2)c1` [NCGC00427606-01], the IC50 was found to be 1.57 µM.

Take `Cc1cn2nc(C(=O)NCCc3ccccc3)cc2c(=O)[nH]1` [NCGC00453944-01]: the IC50 was found to be 11.1 µM.

Turning to `CCN(CC)CCOc1ccc(-c2nc3cc(Cl)ccc3s2)cc1` [NCGC00160568-01], the IC50 is 25.4 µM.

For `Cc1ccc(-n2ncc3c(N(C)Cc4ccccc4)ncnc32)cc1` [NCGC00139028-01], the IC50 is 1.57 µM.

On to `CCC(=O)Nc1cnc(-c2ccc(C)cc2)nc1` [NCGC00432895-01], for which the IC50 stood at 8.81 µM.

`Cc1cccc(NC(=O)c2c(N)sc3c2CCC(C)C3)c1` (centres unmarked) [NCGC00099772-01]: the IC50 is 9.89 µM.

On to `COc1ccc(NC(=O)Cn2c(SCc3ccc(C)cc3)nc3cccnc32)cc1OC` [NCGC00123978-01], for which the IC50 was 0.7 µM.

As for `Cc1cccc(CCNC(=O)c2sc3nc4n(c(=O)c3c2C)CCCC4)c1` [NCGC00121158-01], the IC50 is more than 30 µM.

For the compound `Fc1ccc(-n2ncc3c(N4CCCCCC4)ncnc32)cc1` [NCGC00138953-01], the IC50 was determined as 1.24 µM.

As for `O=C1Cc2c(-c3cccc4ccccc34)n[nH]c2CN1CCOc1ccccc1` [NCGC00409142-01], the IC50 worked out at 18 µM.

Consider `O=C(O)c1cccc(-c2noc(-c3ccccc3C(F)(F)F)n2)c1` [NCGC00168768-02], for which the IC50 worked out at 0.0624 µM.

Regarding `CCN1CCN(c2csc3ccc(Cl)cc3c2=O)CC1` [NCGC00132328-01], the IC50 came out at 12.4 µM.

On to `COc1ccc(C(=O)Oc2ccc(C(c3c(C)n[nH]c3O)c3c(C)n[nH]c3O)cc2)cc1` [NCGC00100425-01], for which the IC50 amounted to 9.89 µM.

In the case of `Oc1cc(-c2nc3ccccc3s2)cc2c1OCCN(Cc1cccn1-c1ccccn1)C2` [NCGC00240089-01], the IC50 is more than 30 µM.

Consider `CSc1ccc(-c2nc3c([nH]2)CC(C)(C)CNC3=O)cc1` [NCGC00448280-01], for which the IC50 stood at 12.4 µM.

As to `O=C(O)c1ccc(-c2noc(-c3ccccc3C(F)(F)F)n2)cc1` [NCGC00168105-01], the IC50 was found to be 12.4 µM.

For the compound `COc1cccc(-c2cccc(COc3cnc4c(ccn4CC(=O)O)c3)c2)c1` [NCGC00418182-01], the IC50 was 16.1 µM.

`CCCc1ccc2oc(C(=O)NCCc3nncn3CC)c(C)c2c1` [NCGC00436423-01]: the IC50 came to 12.4 µM.

For `CC(=O)NCCNC(=O)c1ccc2c(=O)n(CCc3ccccc3)c(=O)[nH]c2c1` [NCGC00104963-01], the IC50 is 5.56 µM.

For `Oc1cc(-c2nc3ccccc3s2)cc2c1OCCN(Cc1ncccn1)C2` [NCGC00432964-01], the IC50 is more than 30 µM.

`Oc1ccccc1CN1CCNc2cc(-c3ccccc3)ncc2C1` [NCGC00411063-01]: the IC50 is 16.1 µM.

For `COc1cc(NC(=O)c2ccc(-c3ncn[nH]3)cc2)ccc1NC(=O)C(C)(C)C` [NCGC00432557-01], the IC50 was 12.4 µM.

For the compound `Cc1c(-c2ccccc2)[nH]c2c(CNC(=O)C3=NN(C)C(=O)CC3)cc(Cl)cc12` [NCGC00439904-01], the IC50 came to 12.4 µM.

As for `COc1ccc(-c2nc3c4cnn(-c5ccccc5F)c4ncn3n2)cc1` [NCGC00115088-01], the IC50 is 0.785 µM.

Take `COc1cccc(-c2noc(-c3ccc(N4CCCC(CO)C4)nc3)n2)c1OC` (centres unmarked) [NCGC00425266-01]: the IC50 is 2.79 µM.

On to `O=C(Nc1ccccc1-c1nc2ccccc2s1)c1ccccc1F` [NCGC00636212-01], for which the IC50 is more than 30 µM.

Take `Clc1cccc(-n2ncc3c(N4CCC(Cc5ccccc5)CC4)ncnc32)c1` [NCGC00139124-01]: the IC50 was more than 30 µM.

As for `O=C(COc1ccccc1[N+](=O)[O-])Nc1ccc(-c2nc3ccccc3s2)cc1` [NCGC00119127-01], the IC50 is more than 30 µM.

With `Cc1noc(C)c1CN1CCc2nc(C(=O)Nc3ccccc3)oc2CC1` [NCGC00413386-01], the IC50 is more than 30 µM.

For the compound `C[C@@H]1C(=O)O[C@H]2[C@H]1CC[C@@]1(C)Cc3sc(NC(=O)c4c(F)cccc4F)nc3[C@@H](C)[C@H]21` [NCGC00421654-01], the IC50 stood at 9.89 µM.

Consider `COc1ccc(-c2cc3c(=O)n(CCNC(=O)c4ccco4)ccn3n2)cc1` [NCGC00456922-01], for which the IC50 was determined as 9.89 µM.

`COc1ccc(-c2noc(Nc3ccc(OC)c(OC)c3)n2)cc1` [NCGC00422322-01]: the IC50 was found to be 11.1 µM.

Regarding `O=C(Nc1cnc(-c2ccc(Cl)cc2)nc1)C1CCC1` [NCGC00432903-01], the IC50 worked out at 1.24 µM.

`CC(C)COc1ccc(C(=O)Nc2onc3c2CCCC3)cc1` [NCGC00115916-01]: the IC50 came to 1.97 µM.
